For 19 compounds, IC50 results are on record in patent US9777002B2, “Inhibitors of the renal outer medullary potassium channel” (Merck Sharp & Dohme Corp., priority 2012, dated 2017).

The term IC50 denotes the concentration needed to halve the response being measured.

This experiment addresses T1, hROMK (hKir1.1) (Homo sapiens, UniProt P48048).
T1 construct: expressed in transfected cells
T1 sequence (P48048 1-391): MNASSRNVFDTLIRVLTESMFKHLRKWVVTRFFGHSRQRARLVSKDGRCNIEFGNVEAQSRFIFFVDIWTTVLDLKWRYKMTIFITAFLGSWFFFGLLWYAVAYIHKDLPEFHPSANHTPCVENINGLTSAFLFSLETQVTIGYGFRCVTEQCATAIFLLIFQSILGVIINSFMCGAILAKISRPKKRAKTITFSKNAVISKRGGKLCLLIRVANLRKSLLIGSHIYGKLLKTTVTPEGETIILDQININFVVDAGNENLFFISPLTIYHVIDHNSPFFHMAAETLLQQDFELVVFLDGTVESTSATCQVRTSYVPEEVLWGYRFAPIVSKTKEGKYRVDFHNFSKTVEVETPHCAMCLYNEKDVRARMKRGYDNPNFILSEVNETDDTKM
As to the kind of experiment: Thallium Flux Assay. The following applies: HEK293 cells stably expressing hROMK (hKir1.1). Format: cell-based. As to the method:
Cell Culture Conditions—HEK293 cells stably expressing hROMK (hKir1.1) were grown at 37° C. in a 10% CO2 humidified incubator in complete growth media: Dulbecco's Modified Eagle Medium supplemented with non-essential amino acids, Penicillin/Streptomycin/Glutamine, G418 and FBS. At >80% confluency, aspirate the media from the flask and rinse with 10 mL Calcium/Magnesium-free PBS. Add 5 mL of 1× trypsin (prepared in Ca/Mg Free PBS) to T-225 flask and return flask to 37° C./CO2 incubator for 2-3 minutes. To dislodge the cell, gently bang the side of the flask with your hand. Triturate the cells completely and then transfer the cells to 25 mL complete media. Centrifuge at 1,500 rpm for 6 min followed by resuspension in complete growth media and determine cell concentration. For typical re-seeding, 4E6 cells/T-225 flask will attain >80% confluency in 4 days. Under ideal growth conditions and appropriate tissue culture practices, this cell line is stable for 40-45 passages.
FluxOR Kit Components (Invitrogen F10017)
• FluxOR™ Reagent (Component A) • FluxOR™ Assay Buffer (Component B)—10× Concentrate • PowerLoad™ Concentrate (Component C)—100× Concentrate • Probenecid (Component D)—Lyophilized sample is kept at −20° C. Water soluble, 100× after solubilization in 1 mL water. Store at 4° C. • FluxOR™ Chloride-free Buffer (Component E)—5× Concentrate • Potassium sulfate (K2SO4) Concentrate (Component F)—125 mM in water. Store at 4° C. • Thallium sulfate (Tl2SO4) Concentrate (Component G)—50 mM in water. Store at 4° C. • DMSO (dimethyl sulfoxide, Component H)—1 mL (100%) Reagent Preparation: FluxOR Working Solutions • 1000× FluxOR™ Reagent: Reconstitute a vial of component A in 100 μl DMSO; Mix well; Store 10 μl aliquots at −20° C. • 1× FluxOR™ Assay Buffer: Dilute Component B 10-fold with water; Adjust pH to 7.4 with Hepes/NaOH; Filter and store at 4° C. • Probenecid/Assay Buffer: 100 mL of 1× FluxOR™ Assay Buffer; 1 mL of reconstituted component D; Store at 4° C. • Loading Buffer (per microplate): 10 μl 1000× FluxOR™ Reagent; 100 μl component C; 10 mL Probenecid/Assay Buffer • Compound Buffer (per microplate): 20 mL Probenecid/Assay Buffer; 0.3 mM ouabain (10 mM ouabain in water can be stored in amber bottle/aluminum foil at room temperature); Test compound • 1× FluxOR™ Chloride-Free Buffer: Prepare 1× working solution in water. Can be stored at room temperature • Stimulant Buffer (prepared at 5× final concentration in 1× FluxOR™Chloride-Free Buffer): 7.5 mM Thallium sulfate and 0.75 mM Potassium sulfate (to give a final assay concentration of 3 mM Thallium/0.3 mM Potassium). Store at 4° C. when not in use. If kept sterile, this solution is good for months.
Assay Protocol—The ROMK channel functional thallium flux assay is performed in 384 wells, using the FLIPR-Tetra instrument. HEK-hKir1.1 cells are seeded in Poly-D-Lysine microplates and kept in a 37° C.-10% CO2 incubator overnight. On the day of the experiment, the growth media is replaced with the FluxOR™ reagent loading buffer and incubated, protected from light, at ambient temperature (23-25° C.) for 90 min. The loading buffer is replaced with assay buffer± test compound followed by 30 min incubation at ambient temperature, where the Thallium/Potassium stimulant is added to the microplate.
• 1. Seed HEK-hKir1.1 cells (50 μl at 20,000 cells/well) in 384-well PDL coated Microplates • 2. Allow cells to adhere overnight in humidified 37° C./10% CO2 incubator • 3. Completely remove cell growth media from microplate and replace with 25 μl loading buffer • 4. Incubate Microplate at room temperature, protected form light, for 90 min • 5. Remove loading buffer and replace with 25 μl 1× Assay Buffer±test compound. • 6. Incubate microplate at room temperature, protected from light, for 30 min • 7. At FLIPR-Tetra 384: Add stimulant (Thallium/Potassium) solution to microplate and monitor fluorescence. Excitation=400 nm, Emission=460 & 580 nm. Collect data for ˜10 min. […]
As for `Cc1c([C@@H](O)CN2CC3C(C2)C3NC(=O)c2ccc(C#N)cn2)ccc2c1COC2=O` (stereo partly drawn) [Example 33, 5-Cyano-N-(3-((R)-2-hydroxy-2-(4-methyl-1-oxo-1,3-dihydroisobenzofuran-5-yl)ethyl)-3-azabicyclo[3.1.0]hexan-6-yl)picolinamide], the IC50 was 60 nM.

For `Cc1c([C@@H](O)CN2CCC(NC(=O)c3ccc(-n4cnnn4)cc3)CC2)ccc2c1COC2=O` [Example 34, (R)-N-(1-(2-Hydroxy-2-(4-methyl-1-oxo-1,3-dihydroisobenzofuran-5-yl)ethyl)piperidin-4-yl)-4-(1H-tetrazol-1-yl)benzamide], it took 230 nM to reach half-maximal inhibition (IC50). The figure for `Cc1c([C@@H](O)CN2CCC(NC(=O)c3ccc(-c4ccon4)cc3)CC2)ccc2c1COC2=O` [Example 35, (R)-N-(1-(2-Hydroxy-2-(4-methyl-1-oxo-1,3-dihydroisobenzofuran-5-yl)ethyl)piperidin-4-yl)-4-(isoxazol-3-yl)benzamide] is 60 nM; for `Cc1c([C@@H](O)CN2CCC(NC(=O)c3cccc(-n4cnnn4)c3)CC2)ccc2c1COC2=O` [Example 36, (R)-N-(1-(2-Hydroxy-2-(4-methyl-1-oxo-1,3-dihydroisobenzofuran-5-yl)ethyl)piperidin-4-yl)-3-(1H-tetrazol-1-yl)benzamide] it is 450 nM; for `Cc1c([C@@H](O)CN2CCC(NC(=O)c3ccc(-n4cccn4)cc3)CC2)ccc2c1COC2=O` [Example 37, (R)-N-(1-(2-Hydroxy-2-(4-methyl-1-oxo-1,3-dihydroisobenzofuran-5-yl)ethyl)piperidin-4-yl)-4-(1H-pyrazol-1-yl)benzamide] it is 100 nM. The figure for `Cc1c([C@@H](O)CN2CC[C@@H](NC(=O)c3ccc(C#N)cn3)[C@H](F)C2)ccc2c1COC2=O` [Example 38, 5-Cyano-N-((trans)-3-fluoro-1-((R)-2-hydroxy-2-(4-methyl-1-oxo-1,3-dihydroisobenzofuran-5-yl)ethyl)piperidin-4-yl)picolinamide] is 1000 nM; for `Cc1c([C@@H](O)CN2CCC(NC(=O)c3ccc(-c4cc[nH]n4)cc3)CC2)ccc2c1COC2=O` [Example 39, (R)-N-(1-(2-Hydroxy-2-(4-methyl-1-oxo-1,3-dihydroisobenzofuran-5-yl)ethyl)piperidin-4-yl)-4-(1H-pyrazol-3-yl)benzamide] it is 310 nM; for `Cc1nc(C(=O)NC2CCN(C[C@H](O)c3ccc4c(c3C)COC4=O)CC2)ccc1C#N` [Example 41, (R)-5-Cyano-N-(1-(2-hydroxy-2-(4-methyl-1-oxo-1,3-dihydroisobenzofuran-5-yl)ethyl)piperidin-4-yl)-6-methylpicolinamide] it is 70 nM. `Cc1c([C@@H](O)CN2CCC(NC(=O)c3ncc(C#N)c4ccccc34)CC2)ccc2c1COC2=O` [Example 42, (R)-4-Cyano-N-(1-(2-hydroxy-2-(4-methyl-1-oxo-1,3-dihydroisobenzofuran-5-yl)ethyl)piperidin-4-yl)isoquinoline-1-carboxamide]: the IC50 came to 100 nM. Next, `Cc1c([C@@H](O)CN2CCC(NC(=O)c3ccc(C#N)cc3F)CC2)ccc2c1COC2=O` [Example 45, (R)-4-Cyano-2-fluoro-N-(1-(2-hydroxy-2-(4-methyl-1-oxo-1,3-dihydroisobenzofuran-5-yl)ethyl)piperidin-4-yl)benzamide]: 450 nM; `Cc1c([C@@H](O)CN2CCC(NC(=O)c3ccc(-n4cnnn4)nc3)CC2)ccc2c1COC2=O` [Example 49, (R)-N-(1-(2-Hydroxy-2-(4-methyl-1-oxo-1,3-dihydroisobenzofuran-5-yl)ethyl)piperidin-4-yl)-6-(1H-tetrazol-1-yl)nicotinamide]: 150 nM. Next, `Cc1c([C@@H](O)CN2CCC(C)(NC(=O)c3ccc(-n4cnnn4)nc3)CC2)ccc2c1COC2=O` [Example 51, (R)-N-(1-(2-Hydroxy-2-(4-methyl-1-oxo-1,3-dihydroisobenzofuran-5-yl)ethyl)-4-methylpiperidin-4-yl)-6-(1H-tetrazol-1-yl)nicotinamide]: 390 nM; `Cc1c([C@@H](O)CN2CCC(NC(=O)c3ccc(-n4cnnn4)cn3)CC2)ccc2c1COC2=O` [Example 53, (R)-N-(1-(2-Hydroxy-2-(4-methyl-1-oxo-1,3-dihydroisobenzofuran-5-yl)ethyl)piperidin-4-yl)-5-(1H-tetrazol-1-yl)picolinamide]: 190 nM. `Cc1c([C@@H](O)CN2CCC3(CC2)CCN3C(=O)c2ccc(-n3cnnn3)cn2)ccc2c1COC2=O` [Example 55, (R)-5-(2-(1-(5-(1H-Tetrazol-1-yl)picolinoyl)-1,7-diazaspiro[3.5]nonan-7-yl)-1-hydroxyethyl)-4-methylisobenzofuran-1(3H)-one]: the IC50 amounted to 530 nM. In the case of `Cc1c([C@@H](O)CN2CC3C(C2)C3NC(=O)c2ccc(-n3cnnn3)cn2)ccc2c1COC2=O` (stereo partly drawn) [Example 56, N-(3-((R)-2-Hydroxy-2-(4-methyl-1-oxo-1,3-dihydroisobenzofuran-5-yl)ethyl)-3-azabicyclo[3.1.0]hexan-6-yl)-5-(1H-tetrazol-1-yl)picolinamide], the IC50 came out at 710 nM. Next, `COc1cc(C(=O)NC2CCN(C[C@H](O)c3ccc4c(c3C)COC4=O)CC2)ccc1C#N` [Example 57, (R)-4-Cyano-N-(1-(2-hydroxy-2-(4-methyl-1-oxo-1,3-dihydroisobenzofuran-5-yl)ethyl)piperidin-4-yl)-3-methoxybenzamide]: 320 nM. The figure for `Cc1cc(C(=O)NC2CCN(C[C@H](O)c3ccc4c(c3C)COC4=O)CC2)ncc1-n1cnnn1` [Example 59, (R)-N-(1-(2-Hydroxy-2-(4-methyl-1-oxo-1,3-dihydroisobenzofuran-5-yl)ethyl)piperidin-4-yl)-4-methyl-5-(1H-tetrazol-1-yl)picolinamide] is 90 nM.

The compound `Cc1c([C@@H](O)CN2CCC(C)(NC(=O)c3ccc(-n4cnnn4)cn3)CC2)ccc2c1COC2=O` [Example 60, (R)-N-(1-(2-Hydroxy-2-(4-methyl-1-oxo-1,3-dihydroisobenzofuran-5-yl)ethyl)-4-methylpiperidin-4-yl)-5-(1H-tetrazol-1-yl)picolinamide] had an IC50 of 180 nM. The figure for `Cc1c([C@@H](O)CN2CC[C@H](NC(=O)c3ccc(-n4cnnn4)cn3)C2)ccc2c1COC2=O` [Example 61, N-((S)-1-((R)-2-Hydroxy-2-(4-methyl-1-oxo-1,3-dihydroisobenzofuran-5-yl)ethyl)pyrrolidin-3-yl)-5-(1H-tetrazol-1-yl)picolinamide] is 230 nM.
